Experimental data reported in paper PMC7344628, “Bone-Seeking Matrix Metalloproteinase Inhibitors for the Treatment of Skeletal Malignancy” (Pharmaceuticals, 2020).
Read-outs that look alike come from different tables or passages of the source.

Key:
Test in all cases: fluorogenic peptide substrate assay
Type in all cases: biochemical
MMP-13 = target: T1, MMP-13 (Homo sapiens, UniProt P45452)
T1 construct: gene MMP13
Text: fluorogenic peptide substrate assay on MMP-13

MMP-9 = target: T2, MMP-9 (Homo sapiens, UniProt P14780)
T2 construct: gene MMP9
Text: fluorogenic peptide substrate assay on MMP-9

MMP-8 = target: T3, MMP-8 (Homo sapiens, UniProt P22894)
T3 construct: gene MMP8
Text: fluorogenic peptide substrate assay on MMP-8

MMP-2 = target: T4, MMP-2 (Homo sapiens, UniProt P08253)
T4 construct: gene MMP2
Text: fluorogenic peptide substrate assay on MMP-2

T4 sequence (P08253 110-446 limits assumed): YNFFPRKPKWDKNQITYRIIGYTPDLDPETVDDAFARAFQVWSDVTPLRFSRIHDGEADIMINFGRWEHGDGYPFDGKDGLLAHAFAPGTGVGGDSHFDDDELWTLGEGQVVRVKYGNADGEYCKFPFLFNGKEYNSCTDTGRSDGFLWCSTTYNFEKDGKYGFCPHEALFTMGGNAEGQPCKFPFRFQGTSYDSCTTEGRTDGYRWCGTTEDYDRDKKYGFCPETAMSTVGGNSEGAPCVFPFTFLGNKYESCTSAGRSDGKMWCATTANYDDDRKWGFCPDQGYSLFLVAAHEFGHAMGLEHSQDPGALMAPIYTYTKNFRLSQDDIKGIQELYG
T3 sequence (P22894 100-262 limits assumed): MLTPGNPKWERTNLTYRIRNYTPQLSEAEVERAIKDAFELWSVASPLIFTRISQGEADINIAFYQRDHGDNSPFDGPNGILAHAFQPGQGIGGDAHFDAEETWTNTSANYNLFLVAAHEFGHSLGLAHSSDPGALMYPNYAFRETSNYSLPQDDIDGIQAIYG
T2 sequence (P14780 107-444 limits assumed): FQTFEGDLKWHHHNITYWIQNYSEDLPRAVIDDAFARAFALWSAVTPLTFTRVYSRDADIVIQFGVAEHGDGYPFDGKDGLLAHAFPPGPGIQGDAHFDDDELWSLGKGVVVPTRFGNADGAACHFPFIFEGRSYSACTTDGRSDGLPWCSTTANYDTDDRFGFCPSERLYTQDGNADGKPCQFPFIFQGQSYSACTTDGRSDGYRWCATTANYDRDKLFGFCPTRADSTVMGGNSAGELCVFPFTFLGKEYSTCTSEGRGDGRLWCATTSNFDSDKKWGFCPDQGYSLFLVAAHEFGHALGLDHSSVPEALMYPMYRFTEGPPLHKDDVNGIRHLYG

Row | Structure (SMILES) | IC50 (MMP-13) | IC50 (MMP-9) | IC50 (MMP-8) | IC50 (MMP-2; OmniMMP 2.5 µM or OmniMMP RED 1 µM, pH 7.5, 1 mM CaCl2, 1 µM ZnCl2, 15 min preincubation, 37 °C) | IC50 (MMP-2)
1 | O=P(O)(O)C(NS(=O)(=O)c1ccc(-c2ccccc2)cc1)P(=O)(O)O [ML 115] | 0.74 ± 0.06 µM | > 100 µM | 0.4 ± 0.03 µM | 0.14 ± 0.04 µM | –
2 | Nc1ccc(S(=O)(=O)NC(P(=O)(O)O)P(=O)(O)O)cc1 [compound 1, (4-aminophenylsulfonylamino)methyl-1,1-bisphosphonic acid] | 68.9 ± 10.2 µM | > 100 µM | 66 ± 8 µM | – | 19 ± 3 µM
3 | O=P(O)(O)C(NS(=O)(=O)c1ccc2ccccc2c1)P(=O)(O)O [compound 2, (2-naphthylsulfonylamino)methyl-1,1-bisphosphonic acid] | 9.6 ± 0.4 µM | > 100 µM | 26.8 ± 0.9 µM | – | 18.7 ± 0.8 µM
4 | O=P(O)(O)C(NS(=O)(=O)c1cccc2ccccc12)P(=O)(O)O [compound 3, (1-naphthylsulfonylamino)methyl-1,1-bisphosphonic acid] | 14.6 ± 0.8 µM | 57 ± 2 µM | 31.3 ± 1.2 µM | – | 15.2 ± 0.5 µM
5 | O=C(Nc1ccccc1)Nc1ccc(S(=O)(=O)NC(P(=O)(O)O)P(=O)(O)O)cc1 [compound 4, (4-(3-phenylureido)phenylsulfonylamino)methyl-1,1-bisphosphonic acid] | 15 ± 6 µM | 13.8 ± 0.6 µM | 48 ± 15 µM | – | 2.8 ± 0.6 µM
6 | O=C1c2ccccc2C(=O)N1c1ccc(S(=O)(=O)NC(P(=O)(O)O)P(=O)(O)O)cc1 [compound 5, (4-(1,3-dioxoisoindolin-2-yl)phenylsulfonylamino)methyl-1,1-bisphosphonic acid] | 18.1 ± 1.5 µM | 15 ± 6 µM | 45 ± 5 µM | – | 5.3 ± 0.4 µM
7 | O=C(Nc1ccc(S(=O)(=O)NC(P(=O)(O)O)P(=O)(O)O)cc1)c1ccccc1 [compound 6, (4-benzamidophenylsulfonylamino)methyl-1,1-bisphosphonic acid] | 2 ± 0.7 µM | 2.3 ± 0.1 µM | 1.88 ± 0.03 µM | – | 2.75 ± 0.35 µM

The remaining lines, values ahead:

Row | IC50 (MMP-13) | IC50 (MMP-9) | IC50 (MMP-8) | IC50 (MMP-2; OmniMMP 2.5 µM or OmniMMP RED 1 µM, pH 7.5, 1 mM CaCl2, 1 µM ZnCl2, 15 min preincubation, 37 °C) | IC50 (MMP-2) | Structure (SMILES)
8 | 28 ± 4 µM | 50 ± 11 µM | 79 ± 8 µM | – | 9 ± 0.8 µM | O=C(Nc1cccc(S(=O)(=O)NC(P(=O)(O)O)P(=O)(O)O)c1)c1ccccc1 [compound 7, (3-benzamidophenylsulfonylamino)methyl-1,1-bisphosphonic acid]
9 | 3.3 ± 0.7 µM | 0.67 ± 0.25 µM | 0.78 ± 0.18 µM | – | 0.958 ± 0.018 µM | Cc1ccc(C(=O)Nc2ccc(S(=O)(=O)NC(P(=O)(O)O)P(=O)(O)O)cc2)cc1 [compound 8, (4-(4-methylbenzamido)phenylsulfonylamino)methyl-1,1-bisphosphonic acid]
10 | 0.14 ± 0.05 µM | 0.088 ± 0.012 µM | 0.66 ± 0.13 µM | – | 0.67 ± 0.16 µM | O=C(Nc1ccc(S(=O)(=O)NC(P(=O)(O)O)P(=O)(O)O)cc1)c1ccc(Br)cc1 [compound 9, (4-(4-bromobenzamido)phenylsulfonylamino)methyl-1,1-bisphosphonic acid]
11 | 15.9 ± 1.9 µM | > 100 µM | 17 ± 4 µM | – | 4.2 ± 1.3 µM | O=C(Nc1ccc(S(=O)(=O)NC(P(=O)(O)O)P(=O)(O)O)cc1)c1cccc(Br)c1 [compound 10, (4-(3-bromobenzamido)phenylsulfonylamino)methyl-1,1-bisphosphonic acid]
12 | 0.61 ± 0.16 µM | 0.43 ± 0.1 µM | 0.46 ± 0.11 µM | – | 1.7 ± 0.3 µM | O=C(Nc1ccc(S(=O)(=O)NC(P(=O)(O)O)P(=O)(O)O)cc1)c1ccc([N+](=O)[O-])cc1 [compound 11, (4-(4-nitrobenzamido)phenylsulfonylamino)methyl-1,1-bisphosphonic acid]
13 | 12 ± 5 µM | 21.5 ± 0.7 µM | 25 ± 12 µM | – | 2.7 ± 1 µM | O=C(Nc1ccc(S(=O)(=O)NC(P(=O)(O)O)P(=O)(O)O)cc1)c1cccc2ccccc12 [compound 12, (4-(1-naphthamido)phenylsulfonylamino)methyl-1,1-bisphosphonic acid]
14 | 9.3 ± 0.5 µM | 76 ± 8 µM | 16.6 ± 1.9 µM | – | 3.9 ± 0.5 µM | O=C(Nc1ccc(S(=O)(=O)NC(P(=O)(O)O)P(=O)(O)O)cc1)c1ccc2ccccc2c1 [compound 13, (4-(2-naphthamido)phenylsulfonylamino)methyl-1,1-bisphosphonic acid]
